Results as given in PubChem BioAssay AID248 (DTP/NCI, 2004).
Where “and” joins values, the source holds several entries; their conditions need not be identical. Equal values may be shown once. Toxic doses and inconclusive results are not listed. Cut-off read from the data, not from the text of the source: active = T/C of 150% or more; inactive = T/C below 125%.

Tested on: L1210 leukemia ip in BDF1 mice, survival T/C
Assay: NCI In Vivo Anticancer Drug Screen. Data for tumor model L1210 Leukemia (intraperitoneal) in B6D2F1 (BDF1) mice
Conditions: endpoint: mean survival time, higher = longer survival
Procedure, shortened: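 In this screen, tumor-bearing mice given compound are compared to those given vehicle, and their survival values are reported as a treated-to-control quotient.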

[1] = dose: 100.0 mg/kg/injection, schedule: Q04DX002 (ip), vehicle: Klucel (hydroxypropylcellulose) (HPC)
[2] = dose: 200.0 mg/kg/injection, schedule: Q04DX002 (ip), vehicle: Klucel (hydroxypropylcellulose) (HPC)
[3] = dose: 100.0 mg/kg/injection, schedule: Q01DX001 (ip), vehicle: carboxymethylcellulose (CMC)
[4] = dose: 200.0 mg/kg/injection, schedule: Q01DX001 (ip), vehicle: carboxymethylcellulose (CMC)
[5] = dose: 400.0 mg/kg/injection, schedule: Q01DX001 (ip), vehicle: carboxymethylcellulose (CMC)
[6] = dose: 100.0 mg/kg/injection, schedule: Q01DX009 (ip), vehicle: Klucel (hydroxypropylcellulose) (HPC)
[7] = dose: 100.0 mg/kg/injection, schedule: Q04DX003 (ip), vehicle: Klucel (hydroxypropylcellulose) (HPC)
[8] = dose: 200.0 mg/kg/injection, schedule: Q01DX009 (ip), vehicle: Klucel (hydroxypropylcellulose) (HPC)
[9] = dose: 200.0 mg/kg/injection, schedule: Q04DX003 (ip), vehicle: Klucel (hydroxypropylcellulose) (HPC)
[10] = dose: 100.0 mg/kg/injection, schedule: Q01DX001 (ip), vehicle: saline
[11] = dose: 100.0 mg/kg/injection, schedule: Q01DX009 (ip), vehicle: saline with Tween-80
[12] = dose: 200.0 mg/kg/injection, schedule: Q01DX001 (ip), vehicle: saline
[13] = dose: 200.0 mg/kg/injection, schedule: Q01DX009 (ip), vehicle: saline with Tween-80
[14] = dose: 400.0 mg/kg/injection, schedule: Q01DX001 (ip), vehicle: saline
[15] = dose: 400.0 mg/kg/injection, schedule: Q01DX009 (ip), vehicle: saline with Tween-80
[16] = dose: 75.0 mg/kg/injection, schedule: Q01DX001 (ip), vehicle: other
[17] = dose: 150.0 mg/kg/injection, schedule: Q01DX001 (ip), vehicle: other
[18] = dose: 300.0 mg/kg/injection, schedule: Q01DX001 (ip), vehicle: other
[19] = dose: 100.0 mg/kg/injection, schedule: Q04DX003 (ip), vehicle: saline
[20] = dose: 25.0 mg/kg/injection, schedule: Q01DX009 (ip), vehicle: saline
[21] = dose: 50.0 mg/kg/injection, schedule: Q04DX003 (ip), vehicle: saline
[22] = dose: 100.0 mg/kg/injection, schedule: Q04DX003 (ip), vehicle: saline with Tween-80
[23] = dose: 200.0 mg/kg/injection, schedule: Q04DX003 (ip), vehicle: saline with Tween-80
[24] = dose: 400.0 mg/kg/injection, schedule: Q04DX003 (ip), vehicle: saline with Tween-80
[25] = dose: 50.0 mg/kg/injection, schedule: Q01DX001 (ip), vehicle: carboxymethylcellulose (CMC)
[26] = dose: 50.0 mg/kg/injection, schedule: Q01DX009 (ip), vehicle: Klucel (hydroxypropylcellulose) (HPC)

Measured: T/C

Nc1cc(Cl)c(N)c(N)n1
inactive: dose: 100.0 mg/kg/injection, schedule: Q01DX001 (ip), vehicle: saline with Tween-80 94 % of control | dose: 200.0 mg/kg/injection, schedule: Q01DX001 (ip), vehicle: saline with Tween-80 109 % of control | dose: 400.0 mg/kg/injection, schedule: Q01DX001 (ip), vehicle: saline with Tween-80 108 % of control

CC(C)(C)Nc1ccc(F)cc1
inactive: [1] 106 % of control | [2] 95 % of control

CCc1ccc(N=Nc2ccccc2)cc1
inactive: [3] 105 % of control | [4] 96 % of control | [5] 105 % of control

C[N+](C)(CCl)C1CCCCC1
inactive: dose: 75.0 mg/kg/injection, schedule: Q01DX001 (ip), vehicle: saline 107 % of control

Cc1cc(Cl)nc(Cl)c1C#N
inactive: [6] 101 % of control | [7] 100 % of control | [8] 97 % of control | [9] 89 % of control

CCN(CCO)CC1C(c2ccccc2)C1c1ccccc1 (configuration not stated)
inactive: dose: 12.5 mg/kg/injection, schedule: Q04DX002 (ip), vehicle: Klucel (hydroxypropylcellulose) (HPC) 93 % of control | dose: 25.0 mg/kg/injection, schedule: Q04DX002 (ip), vehicle: Klucel (hydroxypropylcellulose) (HPC) 90 % of control | dose: 50.0 mg/kg/injection, schedule: Q04DX002 (ip), vehicle: Klucel (hydroxypropylcellulose) (HPC) 90 % of control

Cc1cccc(=O)n1Cc1ccccc1
inactive: [10] 104 % of control | [11] 97 % of control | [12] 98 % of control | [13] 91 % of control | [14] 105 % of control | [15] 88 % of control

C(=N\Nc1ccccc1)/c1cccc[n+]1Cc1ccccc1
inactive: [16] 95 % of control | [17] 96 % of control

N#CC(C#N)c1ccc(C(C#N)C#N)cc1
inactive: dose: 50.0 mg/kg/injection, schedule: Q01DX001 (ip), vehicle: saline 103 % of control | [10] 122 % of control | [12] 103 % of control

ON=C1C2CC3CC(C2)CC1C3
inactive: [16] 96 % of control | [17] 94 % of control | [18] 93 % of control

CC(C)(C)C(=O)N/N=C\c1ccc([N+](=O)[O-])s1
inactive: [19] 93 % of control | dose: 200.0 mg/kg/injection, schedule: Q04DX003 (ip), vehicle: saline 87 % of control | dose: 400.0 mg/kg/injection, schedule: Q04DX003 (ip), vehicle: saline 94 % of control

FC(F)(F)c1ccc2c(c1)N(CCCN1CCN(CCN3CCCCC3)CC1)c1ccccc1S2
inactive: dose: 12.5 mg/kg/injection, schedule: Q01DX009 (ip), vehicle: saline 93 % of control | dose: 12.5 mg/kg/injection, schedule: Q04DX003 (ip), vehicle: saline 94 % of control | [20] 86 % of control | dose: 25.0 mg/kg/injection, schedule: Q04DX003 (ip), vehicle: saline 96 % of control | [21] 92 % of control

CCOC(=O)c1cnc(C)nc1NCc1ccccc1
inactive: dose: 100.0 mg/kg/injection, schedule: Q01DX001 (ip), vehicle: Klucel (hydroxypropylcellulose) (HPC) 101 % of control | dose: 200.0 mg/kg/injection, schedule: Q01DX001 (ip), vehicle: Klucel (hydroxypropylcellulose) (HPC) 103 % of control | dose: 400.0 mg/kg/injection, schedule: Q01DX001 (ip), vehicle: Klucel (hydroxypropylcellulose) (HPC) 113 % of control

Cc1ccc(N)c(Br)c1
inactive: dose: 50.0 mg/kg/injection, schedule: Q01DX009 (ip), vehicle: saline with Tween-80 99 % of control | [11] 97 % of control

O=C(Nc1ccc(Cl)c(Cl)c1)N(CCO)Cc1ccccc1
inactive: [6] 90 % of control | [8] 92 % of control | dose: 400.0 mg/kg/injection, schedule: Q01DX009 (ip), vehicle: Klucel (hydroxypropylcellulose) (HPC) 97 % of control

O=C(N/N=C/c1ccccc1O)c1ccccc1O
inactive: [22] 95 % of control | [23] 92 % of control | [24] 93 % of control

C/C=C/Sc1ccccc1C(=O)O
inactive: [25] 104 % of control | [3] 100 % of control | [4] 104 % of control

C/C=C/CC1(c2ccccc2)C(=O)NC(=S)NC1=O
inactive: [16] 108 % of control | [17] 107 % of control | [18] 103 % of control

CCOC(=O)C1C2CCCCC21 (configuration not stated)
inactive: [10] 102 % of control | [12] 96 % of control

Cc1cccc(C)c1N=C(N)NN
inactive: [20] 100 % of control | dose: 50.0 mg/kg/injection, schedule: Q01DX009 (ip), vehicle: saline 101 % of control | [21] 117 % of control | [10] 96 % of control | dose: 100.0 mg/kg/injection, schedule: Q01DX009 (ip), vehicle: saline 95 % of control | [19] 106 % of control | [12] 98 % of control

ClC1=C(Br)C(Br)(Br)C(=C(Br)Br)C1(Br)Br
inactive: dose: 100.0 mg/kg/injection, schedule: Q01DX009 (ip), vehicle: saline sonified 96 % of control | [7] 106 % of control | dose: 200.0 mg/kg/injection, schedule: Q01DX009 (ip), vehicle: saline sonified 94 % of control | [9] 103 % of control | dose: 400.0 mg/kg/injection, schedule: Q01DX009 (ip), vehicle: saline sonified 102 % of control | dose: 400.0 mg/kg/injection, schedule: Q04DX003 (ip), vehicle: Klucel (hydroxypropylcellulose) (HPC) 97 % of control

Cc1coc(NS(=O)(=O)c2ccc(N=Nc3c(N)nc(N)[nH]c3=O)cc2)c1C
inactive: [10] 109 % of control | [12] 102 % of control | [14] 105 % of control

Nc1snc2ncccc12
inactive: [26] 97 % of control | [6] 92 % of control | [7] 89 % of control | [8] 103 % of control | [9] 87 % of control

O=C(/C=C/c1cccnc1)/C=C/c1cccnc1
inactive: dose: 80.0 mg/kg/injection, schedule: Q01DX009 (ip), vehicle: Klucel (hydroxypropylcellulose) (HPC) 108 % of control

c1ccc(CCNc2ncnc3[nH]ncc23)cc1
inactive: dose: 12.0 mg/kg/injection, schedule: Q01DX015 (ip), vehicle: carboxymethylcellulose (CMC) 97 % of control | dose: 25.0 mg/kg/injection, schedule: Q01DX015 (ip), vehicle: carboxymethylcellulose (CMC) 97 % of control | dose: 50.0 mg/kg/injection, schedule: Q01DX015 (ip), vehicle: carboxymethylcellulose (CMC) 95 % of control

CC[C@@H]1C[C@@H]2CN3CCc4c([nH]c5ccc(OC)cc45)C(C(=O)OC)(C2)C13
inactive: [26] 89 % of control | [6] 94 % of control | [8] 89 % of control

O=C(CC(CC(=O)c1ccccc1)c1ccncc1)c1ccccc1
inactive: [25] 95 % of control | [4] 90 % of control | [5] 86 % of control

CN=C(NC)c1ccc(NC(=O)c2cc(Cl)cc(C(=O)Nc3ccc(C(=NC)NC)cc3)c2)cc1
inactive: dose: 1.88 mg/kg/injection, schedule: Q01DX Z (ip), vehicle: saline 88 % of control | dose: 3.75 mg/kg/injection, schedule: Q01DX Z (ip), vehicle: saline 94 % of control | dose: 7.5 mg/kg/injection, schedule: Q01DX Z (ip), vehicle: saline 93 % of control | dose: 15.0 mg/kg/injection, schedule: Q01DX Z (ip), vehicle: saline 104 % of control and 115 % of control

Cc1cnc(SCc2ccc(F)cc2)nc1N(C)C
inactive: dose: 100.0 mg/kg/injection, schedule: Q01DX Z (ip), vehicle: methylcellulose (MC) 88 % of control

CC(C)(C)C(=O)CC(=O)C(C)(C)C.CC(C)(C)C(=O)CC(=O)C(C)(C)C.CC(C)(C)C(=O)CC(=O)C(C)(C)C.[Eu]
inactive: [1] 97 % of control | [2] 106 % of control | dose: 400.0 mg/kg/injection, schedule: Q04DX002 (ip), vehicle: Klucel (hydroxypropylcellulose) (HPC) 87 % of control

CC1CCC=C2C(=O)C3OC(C)(C)C(C3O)C21C (configuration not stated)
inactive: [11] 96 % of control | [22] 97 % of control | [13] 91 % of control | [23] 103 % of control | [15] 93 % of control | [24] 90 % of control
